Experiment [1] addresses T1, WRN helicase (His-WRN527-072) (Homo sapiens, UniProt Q14191).
T1 construct: in-house produced His-WRN527-072 was used; His (N); made in house
As to the kind of experiment: WRN Helicase Assay (fluorescent forked DNA). The class given is biochemical. The note with it: 30 min pre-incubation, 60 min reaction at room temperature. The procedure: To assess the inhibition properties of the invented compounds on WRN helicase activity, a fluorescent assay using forked DNA was set up. In the helicase assay, in-house produced His-WRN527-072 was used. […] 2.5-fold serial dilution of test compounds were prepared for 7 gradient points with DMSO, and then 1.5 μl of each concentration were added to 48.5 μl of assay buffer (25 mM Tris-HCl (pH 8.0), 50 mM NaCl, 2 mM MgCl2, 1 mM DTT, 0.0500 Tween-20, and 2.5 μg/ml BSA) for further dilution. […] Each concentration of the compounds was added as triplicate in the plate. Controls were included in the test to validate the assay. […] Forked DNA and ATP were diluted into 300 nM and 6 mM, respectively, with assay buffer. To initiate the reaction, 5 μl of the dsDNA and ATP solution were added to the assay plate. After 60 minutes room temperature incubation, the plate was transferred to Victor Nivo multimode plate reader (Perkin Elmer, Waltham, MA) and the fluorescence outputs were monitored. GraphPad Prism 9 (GraphPad Software, San Diego, CA) was used to carry out the dose-response curves, deriving IC50s.

The next experiment deals with T2, WRN ATPase (Homo sapiens, UniProt Q14191).
T2 construct: in-house produced His-WRN527-072 was used; His (N); made in house
T2 sequence (Q14191 527-1072 limits assumed): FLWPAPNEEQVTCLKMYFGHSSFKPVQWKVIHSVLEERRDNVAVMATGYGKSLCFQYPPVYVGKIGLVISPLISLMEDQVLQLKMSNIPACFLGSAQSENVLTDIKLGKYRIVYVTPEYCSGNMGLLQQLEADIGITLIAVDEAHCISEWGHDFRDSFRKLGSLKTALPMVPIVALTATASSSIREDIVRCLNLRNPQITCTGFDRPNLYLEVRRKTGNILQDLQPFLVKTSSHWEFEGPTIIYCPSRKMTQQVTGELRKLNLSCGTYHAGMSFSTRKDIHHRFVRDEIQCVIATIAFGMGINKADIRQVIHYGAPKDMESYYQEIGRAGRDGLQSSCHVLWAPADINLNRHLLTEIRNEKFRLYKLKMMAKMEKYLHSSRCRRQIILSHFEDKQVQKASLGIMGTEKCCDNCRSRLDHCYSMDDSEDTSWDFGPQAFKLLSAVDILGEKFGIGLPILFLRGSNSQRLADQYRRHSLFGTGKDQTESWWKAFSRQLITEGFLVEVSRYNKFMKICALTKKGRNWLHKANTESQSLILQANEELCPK
Description: WRN ATPase Assay (ADP-Glo). The class given is biochemical. To be noted: DNA dependent WRN ATPase activity. The procedure:
WRN ATPase Assay To evaluate the inhibition properties of the invented compounds on DNA dependent WRN ATPase activity, an ATPase assay using ADP-Glo assay kit (Promega, Madison, WI) was established. In the ATPase assay, the same WRN protein and DNA substrate as described in helicase assay were used. The serial dilution of the compounds in DMSO was same as helicase assay. […] All the test wells were set as triplicate. Afterwards, 2.5 μl of assay buffer containing 400 nM DNA substrate and 4 mM ATP were added to each well and incubated for 60 minutes. The protein-free control (maximal inhibition) and no-compound control (no inhibition) were included in the test. To stop the reaction and deplete the excessive ATP, 10 μl of the ADP-Glo™ Reagent from the assay kit were added and incubated for 40 minutes. Then, 20 μl of the ATP detection reagent was added. After 30 minutes incubation, the luminescence was measured using Victor Nivo multimode plate reader (Perkin Elmer, Waltham, MA). Dose-response curves, spanning IC50s, were generated by GraphPad Prism 9 (GraphPad Software, San Diego, CA).
In general terms: ADP-Glo turns the ADP formed in a reaction into a luminescent signal.

The next experiment deals with SW48. Description: SW48 cell assay. The format is cell-based. The note with it: Homo sapiens.

Consider one compound from patent US20260199351A1, “TRIAZOLE COMPOUNDS, PREPARATION METHODS AND MEDICINAL USES THEREOF” (Jiangsu Hengrui Pharmaceuticals Co., Ltd., priority 2022, published 2026).

T1 sequence (Q14191 527-1072 limits assumed): as above

Regarding `CCc1c(N2CC3CC(C(=O)c4ncnc(C)c4O)C(C2)N3)c(=O)n2nc(C3=CCOCC3)nc2n1CC(=O)Nc1ccc(C(F)(F)F)cc1Cl` (stereo not drawn) [Compound 186], the 50% inhibitory concentration (IC50) was 2.7 nM in experiment [1], 13 nM against WRN ATPase and 716 nM in the experiment with SW48.

For orientation: IC50 means the concentration that gives 50% inhibition. Read a high IC50 as a need for much substance.
